Data on 5 molecules can be found in ChEMBL document CHEMBL5126529, “Drug discovery of histone lysine demethylases (KDMs) inhibitors (progress from 2018 to present)” (Eur J Med Chem, 2022).

Experiment [1] addresses Lysine-specific demethylase 5C (Homo sapiens, UniProt P41229). Nature of the experiment: Inhibition of N-terminal FLAG/His-tagged full-length human KDM5C (2 to 1560 residues) expressed in baculovirus infected Sf9 insect cells using peptide substrate incubated for 2 hrs by Alpha Screen assay. (In Alpha technology, singlet oxygen from a donor bead excites a nearby acceptor bead.)

Experiment [2] addresses T1, Lysine-specific demethylase 4A (Homo sapiens, UniProt O75164).
T1 sequence (O75164 whole entry): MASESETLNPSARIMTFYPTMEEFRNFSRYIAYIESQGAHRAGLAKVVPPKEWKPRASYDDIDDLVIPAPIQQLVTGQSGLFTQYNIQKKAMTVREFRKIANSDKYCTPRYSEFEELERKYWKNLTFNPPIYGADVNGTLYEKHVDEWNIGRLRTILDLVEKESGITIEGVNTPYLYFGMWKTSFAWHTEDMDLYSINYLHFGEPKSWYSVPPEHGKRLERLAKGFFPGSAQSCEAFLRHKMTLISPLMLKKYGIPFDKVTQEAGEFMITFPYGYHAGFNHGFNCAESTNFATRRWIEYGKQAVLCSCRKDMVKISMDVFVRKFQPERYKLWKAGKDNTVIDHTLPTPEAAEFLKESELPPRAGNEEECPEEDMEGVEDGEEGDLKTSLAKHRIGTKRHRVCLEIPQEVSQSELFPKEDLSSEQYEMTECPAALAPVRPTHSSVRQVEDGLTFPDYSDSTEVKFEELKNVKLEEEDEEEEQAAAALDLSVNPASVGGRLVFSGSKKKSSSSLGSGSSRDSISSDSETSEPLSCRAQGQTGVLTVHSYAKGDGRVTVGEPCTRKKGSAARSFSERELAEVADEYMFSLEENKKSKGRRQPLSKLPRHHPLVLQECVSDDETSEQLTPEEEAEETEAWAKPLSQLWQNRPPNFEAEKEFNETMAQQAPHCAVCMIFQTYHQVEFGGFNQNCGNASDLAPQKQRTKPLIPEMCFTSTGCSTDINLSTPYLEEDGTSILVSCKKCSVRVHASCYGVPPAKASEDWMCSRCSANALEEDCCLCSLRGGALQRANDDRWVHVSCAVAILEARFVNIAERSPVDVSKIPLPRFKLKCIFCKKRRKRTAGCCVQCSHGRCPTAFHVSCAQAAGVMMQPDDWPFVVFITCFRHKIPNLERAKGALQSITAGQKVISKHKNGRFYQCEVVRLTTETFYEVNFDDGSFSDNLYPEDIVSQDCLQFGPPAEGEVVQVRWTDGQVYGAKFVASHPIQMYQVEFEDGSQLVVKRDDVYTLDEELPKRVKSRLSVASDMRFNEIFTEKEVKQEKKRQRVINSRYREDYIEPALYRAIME
Nature of the experiment: Inhibition of recombinant human KDM4A incubated for 30 mins by fluorescence based assay.

Experiment [3] concerns the target T2, Lysine-specific demethylase 5A (Homo sapiens, UniProt P29375). Nature of the experiment: Inhibition of full-length human KDM5A expressed in recombinant baculovirus expression system using […] peptide as substrate incubated for 30 to 45 mins by TR-FRET assay. More on the design: species or system Sf9. (In TR-FRET formats the signal depends on donor and acceptor labels being close together.)

In experiment [4] the target is T1, Lysine-specific demethylase 4A. Nature of the experiment: Inhibition of KDM4A (unknown origin) incubated for 30 mins by fluorescence based assay.
Experiment [5] deals with Lysine-specific demethylase 2A (Homo sapiens, UniProt Q9Y2K7). Nature of the experiment: Inhibition of KDM2A (unknown origin).
Experiment [6] has as its target Lysine-specific demethylase 2B (Homo sapiens, UniProt Q8NHM5). Put plainly: Inhibition of KDM2B (unknown origin).
The target of experiment [7] is T1, Lysine-specific demethylase 4A. Nature of the experiment: Inhibition of KDM4A (1 to 359 residues) (unknown origin) using ARTKQTARK(me3)-STGGKAPRKQLA-GGK(biotin) peptide as substrate preincubated for 10 mins followed by substrate addition measured after 45 mins by LANCE Ultra assay.
In experiment [8] the target is T2, Lysine-specific demethylase 5A. Put plainly: Inhibition of full-length KDM5A ([…])(unknown origin) using ARTK(me3)-QTARKSTGGKAPRKQLA-GGK(biotin) as substrate preincubated for 10 mins followed by substrate addition measured after 45 mins by LANCE Ultra assay.
The target in experiment [9] is Lysine-specific demethylase 6B (Homo sapiens, UniProt O15054). Put plainly: Inhibition of KDM6B (1043 to end residues) (unknown origin) using ATKAARK(me3)-SAPATGGVKKPHRYRPG-GK(biotin) as substrate preincubated for 10 mins followed by substrate addition measured after 45 mins by LANCE Ultra assay.

The structures appear in SMILES notation.

T2 sequence (P29375 whole entry): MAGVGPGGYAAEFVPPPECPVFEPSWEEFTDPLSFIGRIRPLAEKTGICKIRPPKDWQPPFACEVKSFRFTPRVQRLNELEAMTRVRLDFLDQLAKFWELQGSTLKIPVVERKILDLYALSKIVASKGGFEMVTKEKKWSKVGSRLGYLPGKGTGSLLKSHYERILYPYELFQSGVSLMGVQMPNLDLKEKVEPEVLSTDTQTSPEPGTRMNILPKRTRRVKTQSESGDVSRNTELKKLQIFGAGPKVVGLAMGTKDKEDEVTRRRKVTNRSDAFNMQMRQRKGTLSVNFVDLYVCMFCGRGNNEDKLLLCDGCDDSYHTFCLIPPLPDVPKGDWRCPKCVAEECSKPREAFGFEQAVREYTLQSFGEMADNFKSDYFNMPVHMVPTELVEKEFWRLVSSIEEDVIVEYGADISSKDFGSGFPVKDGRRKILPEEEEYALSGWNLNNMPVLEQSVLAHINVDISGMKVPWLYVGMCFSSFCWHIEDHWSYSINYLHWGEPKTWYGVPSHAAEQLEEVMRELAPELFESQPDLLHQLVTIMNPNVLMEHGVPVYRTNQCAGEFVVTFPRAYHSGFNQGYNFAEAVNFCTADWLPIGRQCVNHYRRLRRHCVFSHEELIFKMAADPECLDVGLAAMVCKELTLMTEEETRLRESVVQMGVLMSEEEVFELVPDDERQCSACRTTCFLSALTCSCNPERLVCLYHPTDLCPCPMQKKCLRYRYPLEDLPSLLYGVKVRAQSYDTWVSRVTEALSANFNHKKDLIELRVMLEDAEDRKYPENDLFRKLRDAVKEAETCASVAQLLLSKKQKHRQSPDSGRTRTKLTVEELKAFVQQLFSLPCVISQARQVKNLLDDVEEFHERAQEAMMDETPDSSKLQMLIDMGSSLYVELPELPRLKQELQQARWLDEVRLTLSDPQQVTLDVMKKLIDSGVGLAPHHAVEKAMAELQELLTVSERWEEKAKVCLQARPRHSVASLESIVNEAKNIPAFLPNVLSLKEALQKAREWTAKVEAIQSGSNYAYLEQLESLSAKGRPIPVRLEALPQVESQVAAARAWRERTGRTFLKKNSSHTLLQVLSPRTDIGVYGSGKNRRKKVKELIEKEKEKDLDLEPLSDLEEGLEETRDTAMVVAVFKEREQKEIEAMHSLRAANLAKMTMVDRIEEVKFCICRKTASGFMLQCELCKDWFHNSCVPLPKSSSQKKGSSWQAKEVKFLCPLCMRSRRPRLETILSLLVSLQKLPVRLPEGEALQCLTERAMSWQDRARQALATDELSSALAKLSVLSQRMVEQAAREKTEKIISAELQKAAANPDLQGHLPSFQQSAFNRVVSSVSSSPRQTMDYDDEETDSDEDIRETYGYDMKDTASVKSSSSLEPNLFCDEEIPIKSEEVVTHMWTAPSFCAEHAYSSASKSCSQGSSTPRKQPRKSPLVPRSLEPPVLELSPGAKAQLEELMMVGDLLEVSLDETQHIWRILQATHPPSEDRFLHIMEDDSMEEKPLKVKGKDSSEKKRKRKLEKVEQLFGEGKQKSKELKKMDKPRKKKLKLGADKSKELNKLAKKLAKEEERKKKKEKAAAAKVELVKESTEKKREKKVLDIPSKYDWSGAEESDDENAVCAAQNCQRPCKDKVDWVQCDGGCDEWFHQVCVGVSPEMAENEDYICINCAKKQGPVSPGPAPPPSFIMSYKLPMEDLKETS
Lysine-specific demethylase 2A, sequence (Q9Y2K7 whole entry): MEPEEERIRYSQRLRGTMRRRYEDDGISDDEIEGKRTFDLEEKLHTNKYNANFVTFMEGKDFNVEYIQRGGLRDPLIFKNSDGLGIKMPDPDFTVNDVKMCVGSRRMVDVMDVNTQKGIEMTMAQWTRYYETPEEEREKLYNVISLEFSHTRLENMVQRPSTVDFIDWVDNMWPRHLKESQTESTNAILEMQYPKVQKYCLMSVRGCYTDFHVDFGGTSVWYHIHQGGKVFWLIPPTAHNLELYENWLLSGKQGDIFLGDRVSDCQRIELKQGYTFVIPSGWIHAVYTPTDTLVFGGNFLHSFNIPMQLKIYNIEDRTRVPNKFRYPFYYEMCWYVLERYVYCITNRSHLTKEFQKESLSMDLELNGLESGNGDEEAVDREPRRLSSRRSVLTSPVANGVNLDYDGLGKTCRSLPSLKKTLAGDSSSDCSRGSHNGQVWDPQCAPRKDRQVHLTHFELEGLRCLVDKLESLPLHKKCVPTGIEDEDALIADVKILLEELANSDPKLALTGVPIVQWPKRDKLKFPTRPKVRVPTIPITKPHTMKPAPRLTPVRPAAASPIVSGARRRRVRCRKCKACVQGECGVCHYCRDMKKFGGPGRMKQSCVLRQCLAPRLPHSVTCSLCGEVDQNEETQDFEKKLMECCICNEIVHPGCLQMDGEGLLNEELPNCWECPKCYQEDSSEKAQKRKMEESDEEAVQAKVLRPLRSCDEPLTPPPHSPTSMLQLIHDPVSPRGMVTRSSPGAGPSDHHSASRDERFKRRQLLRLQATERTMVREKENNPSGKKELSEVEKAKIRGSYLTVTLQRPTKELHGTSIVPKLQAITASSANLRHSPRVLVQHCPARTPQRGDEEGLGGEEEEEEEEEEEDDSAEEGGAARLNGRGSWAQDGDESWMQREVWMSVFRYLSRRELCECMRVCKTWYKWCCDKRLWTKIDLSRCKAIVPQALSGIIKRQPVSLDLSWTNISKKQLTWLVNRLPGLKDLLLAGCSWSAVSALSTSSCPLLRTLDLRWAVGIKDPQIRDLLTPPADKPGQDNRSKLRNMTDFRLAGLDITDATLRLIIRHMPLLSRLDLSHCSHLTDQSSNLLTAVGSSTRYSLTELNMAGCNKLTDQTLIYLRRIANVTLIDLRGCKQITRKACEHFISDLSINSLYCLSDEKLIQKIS
Lysine-specific demethylase 5C, sequence (P41229 whole entry, the tested form may be a part): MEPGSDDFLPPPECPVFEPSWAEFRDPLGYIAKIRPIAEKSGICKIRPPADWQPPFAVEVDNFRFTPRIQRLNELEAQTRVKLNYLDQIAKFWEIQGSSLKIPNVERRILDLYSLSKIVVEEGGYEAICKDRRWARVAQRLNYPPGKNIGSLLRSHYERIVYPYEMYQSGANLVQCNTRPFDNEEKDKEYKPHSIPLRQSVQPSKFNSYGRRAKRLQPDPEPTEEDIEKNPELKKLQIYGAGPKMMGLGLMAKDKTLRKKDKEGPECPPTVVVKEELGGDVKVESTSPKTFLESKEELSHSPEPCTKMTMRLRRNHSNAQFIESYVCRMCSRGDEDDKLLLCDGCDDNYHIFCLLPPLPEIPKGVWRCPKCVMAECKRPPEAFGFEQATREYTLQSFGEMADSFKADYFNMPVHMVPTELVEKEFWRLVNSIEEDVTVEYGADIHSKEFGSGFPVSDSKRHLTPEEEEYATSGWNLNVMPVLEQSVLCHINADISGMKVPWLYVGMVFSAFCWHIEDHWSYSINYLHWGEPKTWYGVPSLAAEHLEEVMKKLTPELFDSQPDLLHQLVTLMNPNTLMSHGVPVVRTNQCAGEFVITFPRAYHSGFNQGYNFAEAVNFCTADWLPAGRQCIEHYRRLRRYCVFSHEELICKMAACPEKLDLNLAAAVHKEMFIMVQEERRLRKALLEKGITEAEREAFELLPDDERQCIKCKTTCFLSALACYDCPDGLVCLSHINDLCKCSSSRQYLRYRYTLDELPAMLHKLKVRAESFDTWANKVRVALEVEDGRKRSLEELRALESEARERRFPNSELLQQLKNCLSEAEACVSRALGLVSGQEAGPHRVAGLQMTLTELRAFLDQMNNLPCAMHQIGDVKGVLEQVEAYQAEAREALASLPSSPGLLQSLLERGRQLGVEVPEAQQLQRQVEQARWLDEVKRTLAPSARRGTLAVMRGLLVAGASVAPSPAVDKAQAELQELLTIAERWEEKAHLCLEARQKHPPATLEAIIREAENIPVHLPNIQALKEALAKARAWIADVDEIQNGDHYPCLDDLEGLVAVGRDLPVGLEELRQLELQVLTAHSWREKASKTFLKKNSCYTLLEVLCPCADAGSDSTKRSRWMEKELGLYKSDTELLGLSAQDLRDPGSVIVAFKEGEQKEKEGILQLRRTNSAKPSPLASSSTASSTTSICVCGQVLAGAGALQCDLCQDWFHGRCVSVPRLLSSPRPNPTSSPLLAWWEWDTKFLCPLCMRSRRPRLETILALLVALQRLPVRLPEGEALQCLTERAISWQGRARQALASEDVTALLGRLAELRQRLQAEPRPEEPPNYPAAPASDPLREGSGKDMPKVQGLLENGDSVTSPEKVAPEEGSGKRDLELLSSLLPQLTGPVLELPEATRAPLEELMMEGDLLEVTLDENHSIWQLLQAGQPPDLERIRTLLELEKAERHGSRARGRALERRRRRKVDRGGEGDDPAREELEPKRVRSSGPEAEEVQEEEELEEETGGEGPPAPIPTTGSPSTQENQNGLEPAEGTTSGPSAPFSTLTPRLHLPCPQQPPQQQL

A word on the IC50: it is the midpoint of a concentration-inhibition curve. `CCCCCCN(C)CCn1cc(-c2cc(C(=O)O)ccn2)nn1`: in experiment [1], the 50% inhibitory concentration (IC50) stood at 0.0088 µM.
With `O=C(O)c1cc(O)c(=O)c2c(O)c(O)cc(-c3ccccc3)c2c1`, the IC50 in experiment [2] worked out at 24.4 µM.
Turning to `Cc1cc(O[C@H](C)C(=O)NCC(=O)NCC(=O)O)c2c3c(c(=O)oc2c1)CCC3`, the IC50 in experiment [3] was 0.0238 µM; in [4], more than 100 µM.
Take `Cc1c(O)c(=O)ccn1C` [DEFERIPRONE]: the IC50 in experiment [5] turned out to be 6.8 µM; in [6], 8.1 µM.
`O=C(O)c1ccc(-n2nc(-c3ccccc3O)nc2-c2ccccc2O)cc1` [DEFERASIROX]: the IC50 came to 4.76 µM in experiment [7], 5 µM in experiment [8] and 3.95 µM in experiment [9].
